# Reference: publication PMC3728351, “Allosteric Inhibitors of the NS3 Protease from the Hepatitis C Virus” (PLoS ONE, 2013)
# Where two headings read alike, the source gives them in different places.
# Legend:
# NS3 protease [1] = settings: pH 7.5; cited from earlier work
# NS3 protease [2] = settings: read-out: apparent dissociation constant for the NS3-zinc interaction; cited from earlier work
# NS3 protease [3] = settings: read-out: dissociation constant for the NS3-zinc interaction; ITC, pH 5; cited from earlier work
# NS3 protease [4] = settings: assuming pseudo-first order association, from kobs of ref 23
# NS3 protease S139A/R155K = target: T1, NS3 protease S139A/R155K (Hepatitis C virus genotype 1b, UniProt P26663, R1181K/S1165A); assay: ITC binding to Zn^+2-free NS3 protease, S139A/R155K; settings: 25°C, 100 mM sodium acetate, 2 mM EDTA, pH 5; relative error 15%
# T1 construct: The N-terminal domain from full-length NS3 protein corresponding to NS3 protease was expressed and purified; made in house
# Procedure: (§1) The N-terminal domain from full-length NS3 protein corresponding to NS3 protease was expressed and purified as described elsewhere, [18].
# (§2) Ligand binding to NS3 protease was determined with a high-sensitivity isothermal titration VP-ITC microcalorimeter (MicroCal, USA). Protein samples and reference solutions were properly degassed and carefully loaded into the cells to avoid bubble formation during stirring. Experiments were performed with freshly prepared buffer-exchanged protein solutions, at 25°C in 100 mM sodium acetate, 2 mM EDTA, pH 5. NS3 protease 20 µM solution in the calorimetric cell was titrated with compound 300 µM solution. Control experiments were performed under the same experimental conditions, except for the presence of zinc (no addition of EDTA). The heat evolved after each ligand injection was obtained from the integral of the calorimetric signal. The heat due to the binding reaction was obtained as the difference between the reaction heat and the corresponding heat of dilution, the latter estimated as a constant heat throughout the experiment, and included as an adjustable parameter in the analysis. The association constant (Ka) and the enthalpy change (ΔH) were obtained through non-linear regression of experimental data to a model for a protein with a single ligand binding site. Data were analyzed using software developed in our laboratory implemented in Origin 7 (OriginLab, USA).
# (§3) NS3 protease wild-type, pseudo-wild-type (containing the inactivating mutation S139A) and several variants containing drug-resistance associated mutations (R155K, R155Q, A156T, and D168A) were employed for determining the impact of these mutations on the interaction of the selected compounds with the protein (change in dissociation constant).
# in vitro = format: cell-based; settings: human
# Procedure: Serial dilutions of the test compounds in complete DMEM (without G418) were added 24 hours after seeding. Cells were allowed to proliferate for 3 days at 37°C, after which the cell number was determined by CellTiter 96 AQueous One Solution Cell Proliferation Assay (Promega Corporation).
# [5] = target: T2, NS3 protease S139A (pseudo-wild-type) (Hepatitis C virus genotype 1b, UniProt P26663, S1165A); assay: ITC binding to Zn^+2-free NS3 protease, pseudo-wild-type S139A; settings: 25°C, 100 mM sodium acetate, 2 mM EDTA, pH 5; relative error 15%
# T2 construct: The N-terminal domain from full-length NS3 protein corresponding to NS3 protease was expressed and purified; made in house
# Procedure: as §1, §2, §3
# [6] = target: T3, NS3 protease wild-type (Zn^+2-free) (Hepatitis C virus genotype 1b, UniProt P26663); assay: biochemical; format: binding
# T3 construct: The N-terminal domain from full-length NS3 protein corresponding to NS3 protease was expressed and purified; made in house
# Procedure: as §1, §2, §3
# [7] = test system: genotype 1b Con1 HCV subgenomic replicons (Huh 5-2); assay: microbe, parasite or virus in culture; settings: for EC50: Hepatitis C virus, GETYPE1B, Huh-5-2, 72 h, read-out: EC50, effective concentration 50%
# Procedure: The highly permissive cell clone Huh 7-Lunet, as well as Huh 7 cells containing subgenomic HCV replicons I389luc-ubi-neo/NS3-3′/5.1 (Huh 5-2), I377NS3-3′/wt (Huh 9-13) or I389/hygro-ubi-NS3-3/5.1 (a kind gift from Dr. V. Lohmann and Dr. R. Bartenschlager) have been described recently [25]-[28]. Cells were grown in Dulbecco’s modified Eagle’s medium (DMEM; Gibco, Belgium) supplemented with 10% heat-inactivated fetal bovine serum (PAN-Biotech GmbH, Germany), 1X non-essential amino acids (Gibco), 100 IU/mL penicillin (Gibco), 100 µg/mL streptomycin (Gibco), and 250 µg/mL geneticin (G418; Gibco).
# Antiviral assays for assessing the efficacy of the selected compounds were performed as described in literature [23]–[28]. Briefly, Huh 5-2 cells were seeded at a density of 5⋅10^3 cells per well in a tissue culture-treated white 96-well view plate (Techno Plastic Products AG, Switzerland) in complete DMEM supplemented with 250 µg/mL G418. […] After 3 days of incubation at 37°C cell culture medium was removed and luciferase activity was determined using the Bright-Glo™ Luciferase Assay System (Promega Corporation, The Netherlands). The luciferase signal was measured using a Synergy HT Multimode Reader (BioTek Instruments Inc, USA).
# NS3 protease S139A/D168A = target: T4, NS3 protease S139A/D168A (Hepatitis C virus genotype 1b, UniProt P26663, D1194A/S1165A); assay: ITC binding to Zn^+2-free NS3 protease, S139A/D168A; settings: 25°C, 100 mM sodium acetate, 2 mM EDTA, pH 5; relative error 15%
# T4 construct: The N-terminal domain from full-length NS3 protein corresponding to NS3 protease was expressed and purified; made in house
# Procedure: as §1, §2, §3
# NS3 protease S139A/R155Q = target: T5, NS3 protease S139A/R155Q (Hepatitis C virus genotype 1b, UniProt P26663, R1181Q/S1165A); assay: ITC binding to Zn^+2-free NS3 protease, S139A/R155Q; settings: 25°C, 100 mM sodium acetate, 2 mM EDTA, pH 5; relative error 15%
# T5 construct: The N-terminal domain from full-length NS3 protein corresponding to NS3 protease was expressed and purified; made in house
# Procedure: as §1, §2, §3
# NS3 protease S139A/A156T = target: T6, NS3 protease S139A/A156T (Hepatitis C virus genotype 1b, UniProt P26663, A1182T/S1165A); assay: ITC binding to Zn^+2-free NS3 protease, S139A/A156T; settings: 25°C, 100 mM sodium acetate, 2 mM EDTA, pH 5; relative error 15%
# T6 construct: The N-terminal domain from full-length NS3 protein corresponding to NS3 protease was expressed and purified; made in house
# Procedure: as §1, §2, §3
# [8] = Huh 5-2 cells, 3 days proliferation, relative error 15%
# [9] = ratio of CC50 to EC50 in Huh 5-2 cells
# T3 sequence (P26663 1027-1208): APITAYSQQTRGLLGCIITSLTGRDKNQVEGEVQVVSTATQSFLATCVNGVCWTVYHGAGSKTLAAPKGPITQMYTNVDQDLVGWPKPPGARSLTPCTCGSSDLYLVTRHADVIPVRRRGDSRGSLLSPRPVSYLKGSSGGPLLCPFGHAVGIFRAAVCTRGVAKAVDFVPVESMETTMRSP
# T4 sequence (P26663 1027-1208 S1165A/D1194A): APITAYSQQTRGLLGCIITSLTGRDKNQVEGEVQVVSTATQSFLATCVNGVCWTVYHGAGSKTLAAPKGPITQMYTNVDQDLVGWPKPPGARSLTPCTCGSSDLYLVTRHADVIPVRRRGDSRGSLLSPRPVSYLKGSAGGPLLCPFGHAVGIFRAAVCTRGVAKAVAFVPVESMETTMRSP
# T1 sequence (P26663 1027-1208 S1165A/R1181K): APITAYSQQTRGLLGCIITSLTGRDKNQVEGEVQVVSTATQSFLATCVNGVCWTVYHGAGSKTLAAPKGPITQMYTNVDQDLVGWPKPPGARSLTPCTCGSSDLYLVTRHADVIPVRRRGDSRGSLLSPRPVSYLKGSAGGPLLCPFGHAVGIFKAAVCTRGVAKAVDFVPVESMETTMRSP
# T5 sequence (P26663 1027-1208 S1165A/R1181Q): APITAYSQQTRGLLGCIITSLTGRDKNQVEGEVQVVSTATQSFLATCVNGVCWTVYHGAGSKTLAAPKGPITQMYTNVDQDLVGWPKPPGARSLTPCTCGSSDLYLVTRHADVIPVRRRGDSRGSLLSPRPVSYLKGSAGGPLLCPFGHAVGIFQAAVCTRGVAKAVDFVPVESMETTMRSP
# T2 sequence (P26663 1027-1208 S1165A): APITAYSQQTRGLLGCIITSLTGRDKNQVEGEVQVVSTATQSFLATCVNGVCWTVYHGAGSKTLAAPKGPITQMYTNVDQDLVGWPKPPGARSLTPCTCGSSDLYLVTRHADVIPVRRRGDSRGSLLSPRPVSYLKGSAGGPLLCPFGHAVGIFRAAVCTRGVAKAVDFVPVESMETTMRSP
# T6 sequence (P26663 1027-1208 S1165A/A1182T): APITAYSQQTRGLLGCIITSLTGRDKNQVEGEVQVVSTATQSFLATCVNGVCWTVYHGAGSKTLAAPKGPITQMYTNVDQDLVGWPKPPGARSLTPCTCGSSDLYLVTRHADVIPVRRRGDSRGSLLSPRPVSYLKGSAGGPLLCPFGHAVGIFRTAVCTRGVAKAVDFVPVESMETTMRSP
Compound,"apparent association rate constant, kobs (NS3 protease [1])",Kd (NS3 protease [2]) [µM],Kd (NS3 protease [3]) [µM],kon (NS3 protease [4]) [M⁻¹ s⁻¹],Kd (NS3 protease S139A/R155K) [µM],CC50 (in vitro; [8]) [µM],Kd [5] [µM],Kd [6] [µM],EC50 [7] [µM],"CC50/EC50 [7, 9]",Kd (NS3 protease S139A/D168A) [µM],Kd (NS3 protease S139A/R155Q) [µM],Kd (NS3 protease S139A/A156T) [µM],CC50 at 3 days (in vitro; [8]) [µM],CC50 (in vitro) [µM],CC50/EC50 [7]
zinc,around 0.014 s^−1,~1,0.5,< 1400,,,,,,,,,,,,
COC(=O)Nc1nc2ccc(C(=O)c3cccs3)cc2[nH]1 [Compound 1],,,,,5.3,> 120,6.5,1.9,0.03,>4000,2.6,,,,,
CCOc1ccc(Cc2nccc3cc(OCC)c(OCC)cc23)cc1OCC [Compound 8],,,,,9.2,60,34,31,4,15,16,42,22,,,
COC(=O)[C@H]1[C@H]2C[C@@H]3c4[nH]c5cc(OC)ccc5c4CCN3C[C@H]2C[C@@H](OC(=O)/C=C/c2cc(OC)c(OC)c(OC)c2)[C@@H]1OC [Compound 6],,,,,61,> 120,24,40,20,>6,36,23,45,,,
CC[C@@]1(O)C(=O)OCc2c1cc1n(c2=O)Cc2cc3ccccc3nc2-1 [Compound 3],,,,,,,,2.5,0.03,,,,,8,,
CC(=O)C1CCC2C3C=CC4=CC(=O)CCC4(C)C3CCC12C (centres unmarked) [Compound 7],,,,,16,> 120,5.7,16,2,>60,6.5,4.2,5.8,,,
Nc1c2c(nc3ccccc13)CCCC2 [Compound 5],,,,,5.9,,5.5,1.7,60,,8.5,32,27,,> 120,>2
